The target of the test is T1, mGluR2 receptor (metabotropic glutamate receptor 2) (Homo sapiens, UniProt Q14416).
T1 construct: expressed in transfected cells
T1 sequence (Q14416 19-872, species assumed): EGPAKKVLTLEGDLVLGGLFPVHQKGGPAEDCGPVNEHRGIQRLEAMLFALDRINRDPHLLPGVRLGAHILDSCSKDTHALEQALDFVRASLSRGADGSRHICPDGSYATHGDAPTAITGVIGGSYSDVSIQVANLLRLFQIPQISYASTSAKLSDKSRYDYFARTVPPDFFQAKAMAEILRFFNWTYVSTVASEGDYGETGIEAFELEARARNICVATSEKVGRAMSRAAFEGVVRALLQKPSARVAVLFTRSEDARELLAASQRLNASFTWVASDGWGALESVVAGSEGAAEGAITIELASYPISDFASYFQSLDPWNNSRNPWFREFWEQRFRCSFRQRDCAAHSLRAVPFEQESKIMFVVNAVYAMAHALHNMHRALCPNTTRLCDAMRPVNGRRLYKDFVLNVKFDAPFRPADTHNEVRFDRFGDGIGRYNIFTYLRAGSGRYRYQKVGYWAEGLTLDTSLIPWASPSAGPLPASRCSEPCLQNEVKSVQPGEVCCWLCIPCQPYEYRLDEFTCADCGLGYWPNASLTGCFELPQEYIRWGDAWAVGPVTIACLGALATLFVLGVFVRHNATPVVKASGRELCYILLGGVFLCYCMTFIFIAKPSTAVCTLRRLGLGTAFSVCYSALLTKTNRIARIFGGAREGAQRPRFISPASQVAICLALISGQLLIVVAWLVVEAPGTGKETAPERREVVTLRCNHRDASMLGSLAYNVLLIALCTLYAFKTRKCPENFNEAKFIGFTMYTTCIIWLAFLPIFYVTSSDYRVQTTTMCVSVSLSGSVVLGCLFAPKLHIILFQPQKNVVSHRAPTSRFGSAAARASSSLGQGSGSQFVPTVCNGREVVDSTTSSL
Kind of test: mGluR2 potentiator screen (FLIPR, EC10-EC20 glutamate challenge).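 Further: HEK cells stably expressing human mGluR2 with GL15 G protein, Fluo-4 calcium fluorescence read on FLIPR, compounds added before an EC10-EC20 glutamate challenge to detect potentiation.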 The class given is cell-based. Conditions: geometric mean; read-out: mGluR 2 EC50 (geometric mean).
As a reminder, the EC50 is the concentration giving half of the maximal effect. As for `C[C@@H]1CN(Cc2ccc3c(c2)Cc2ccccc2-3)C(=O)O1` [Example 185], the EC50 worked out at 625 nM.
As to `CC(=O)c1ccc(-c2ccc(CN3C[C@@H](C)OC3=O)cc2)cc1` [Example 171], the EC50 worked out at 60.2 nM.
Then `C[C@@H]1CN(Cc2ccc(-c3ccc(OC(F)F)cc3)nc2)C(=O)O1` [Example 313], with 531 nM.
In the case of `CC1CCCC1N1CCN(Cc2ccc(OC(C)C3CCCCC3)cc2)C(=O)C1` (stereo not shown) [Example 225] it was 638 nM; in that of `CCC(C)CCOc1ccc(CN2CC(C)OC2=O)cc1` (stereo not shown) [Example 94], 42 nM; in that of `CC(Oc1ccc(CN2CCN(CCCC(F)(F)F)CC2=O)cc1)C1CCCCC1` (stereo not shown) [Example 218], 681 nM.
Take `C[C@@H]1CN(Cc2ccc(-c3ccc(Cl)c(Cl)c3)cc2)C(=O)O1` [Example 182]: the EC50 came to 74.6 nM.
On to `CCCOc1ccc(CN2CC(c3ccccc3)OC2=O)cc1` (stereo not shown) [Example 3], for which the EC50 came out at 361 nM.
Consider `Cc1c(COc2ccc(CN3CC(C)OC3=O)cc2)cnn1-c1ccccc1` (stereo not shown) [Example 128], for which the EC50 is 595 nM.
In the case of `Cc1ccc(-c2ccc(CN3C[C@@H](C)OC3=O)cn2)c(F)c1` [Example 257], the EC50 was 429 nM.
Then `CC1CN(Cc2ccc(OCCc3ccc(C#N)cc3)cc2)C(=O)O1` (stereo not shown) [Example 109], with 219 nM; and `O=C1OCCN1Cc1ccc(OCCC2CCCCC2)cc1` [Example 11], with 699 nM; and `CC(Oc1ccc(CN2CC(c3ccccc3)OC2=O)cc1)C1CCCCC1` (stereo not shown) [Example 38], with 127 nM.
Take `COc1c(-c2ccc(F)cc2)ccc(CN2C[C@@H](C)OC2=O)c1F` [Example 253]: the EC50 stood at 135 nM.
Consider `CC(Oc1ccc(CN2CC(C)(C)COC2=O)cc1)C1CCCCC1` (stereo not shown) [Example 47], for which the EC50 was 247 nM.
Consider `C[C@@H]1CN(Cc2ccc(-c3ccc(F)c(F)c3)cc2)C(=O)O1` [Example 245], for which the EC50 stood at 92.9 nM.
On to `CC1CN(Cc2ccc(OCCc3cccc(Cl)c3)cc2)C(=O)O1` (stereo not shown) [Example 99], for which the EC50 turned out to be 115 nM.
Turning to `Cc1ccc(F)cc1-c1ccc(CN2C[C@@H](C)OC2=O)cc1` [Example 248], the EC50 was 53.7 nM.
On to `C[C@@H]1CN(Cc2ccc(-c3ccc4c(c3)OCCO4)cc2)C(=O)O1` [Example 198], for which the concentration giving a half-maximal response (EC50) is 42.2 nM.
Consider `C[C@@H]1CN(Cc2ccc(-c3ccc(C(F)(F)F)cc3F)cc2)C(=O)O1` [Example 234], for which the EC50 is under 34.5 nM.
For `CC(Oc1ccc(CN2CCN(C(C)C3CCC3)CC2=O)cc1)C1CCCCC1` (stereo not shown) [Example 221], the EC50 is 794 nM.
Then `CCCN1CCN(Cc2ccc(OC(C)C3CCCCC3)cc2)C(=O)C1` (stereo not shown) [Example 215], with 435 nM; and `Cc1cc(F)ccc1-c1ccc(CN2C[C@@H](C)OC2=O)cc1` [Example 159], with 13.9 nM; and `CC1CN(Cc2ccc(OC[C@@H](C)c3ccccc3)cc2)C(=O)O1` (stereo partly shown) [Example 111], with 48.3 nM.
Regarding `C[C@@H]1CN(Cc2ccc(-c3ccc(Cl)cc3Cl)nc2)C(=O)O1` [Example 269], the 50% effective concentration (EC50) was found to be 518 nM.
For `CC(C1CCC1)N1CCN(Cc2ccc(-c3ccc(F)cc3F)cc2)C(=O)C1` (stereo not shown) [Example 306, 4-(1-Cyclobutylethyl)-1-[(2′,4′-difluorobiphenyl-4-yl)methyl]piperazin-2-one], the EC50 is 327 nM.
With `O=C1OC(c2cccnc2)CN1Cc1ccc(-c2ccc(F)cc2F)cc1` (stereo not shown) [Example 302, 3-[(2′,4′-Difluorobiphenyl-4-yl)methyl]-5-pyridin-3-yl-1,3-oxazolidin-2-one], the EC50 turned out to be 78.9 nM.
For `Cc1ccc(F)cc1COc1ccc(CN2C[C@@H](C)OC2=O)cc1` [Example 205], the EC50 is 68 nM.
Then `CCOC(=O)c1cccc(-c2ccc(CN3C[C@@H](C)OC3=O)cc2)c1` [Example 169], with 49 nM; and `C[C@H]1[C@@H](c2ccccc2)OC(=O)N1Cc1ccc(OCc2ccccc2)cc1` [Example 29], with 467 nM.
In the case of `CC1CN(Cc2ccc(OCc3nc4ccccc4n3C(C)C)cc2)C(=O)O1` (stereo not shown) [Example 97] it was 823 nM; in that of `C[C@@H]1CN(Cc2ccc(-c3cc(C#N)ccc3Cl)cc2)C(=O)O1` [Example 231], 683 nM; in that of `O=C1OC[C@@H]2CCCC[C@@H]2N1Cc1ccc(OCC2CCC2)cc1` [Example 1], 761 nM.
In the case of `C[C@@H]1CN(Cc2ccc(-c3ccc(C(F)(F)F)cc3Cl)nc2)C(=O)O1` [Example 268] it was 102 nM.
As to `CC(C)COc1ccc(CN2C(=O)O[C@H](c3ccccc3)[C@@H]2C)cc1` [Example 26], the EC50 amounted to 542 nM.
As to `O=C1OC(c2ccccc2)CN1Cc1ccc(OCC2CCC2)cc1` (stereo not shown) [Example 9], the EC50 came to 135 nM.
Then `CCC1CN(Cc2ccc(-c3ccc(F)cc3F)cc2)C(=O)O1` (stereo not shown) [Example 315], with 41.4 nM; and `CC1CN(Cc2ccc(OCCC(C)(C)C)cc2)C(=O)O1` (stereo not shown) [Example 96], with under 14.9 nM; and `O=C1OC[C@@H]2CCCC[C@@H]2N1Cc1ccc(OC2CCCCC2)cc1` [Example 41], with 386 nM.
Consider `C[C@@H]1CN(Cc2ccc(OCC3CCCCC3)c(F)c2)C(=O)O1` [Example 227, (5R)-3-[4-(cyclohexylmethoxy)-3-fluorobenzyl]-5-methyl-1,3-oxazolidin-2-one], for which the EC50 is 196 nM.
In the case of `C[C@@H]1CN(Cc2ccc(-c3cccc4cnccc34)cc2)C(=O)O1` [Example 162] it was 42 nM; in that of `C[C@H]1[C@@H](c2ccccc2)OC(=O)N1Cc1ccc(OCCC2CCCCC2)cc1` [Example 30], 987 nM; in that of `COc1ccc(-c2ccc(CN3C[C@@H](C)OC3=O)cc2F)cn1` [Example 295], 804 nM.
`C[C@@H]1CN(Cc2ccc(-c3cc(Cl)cc(Cl)c3)cc2)C(=O)O1` [Example 187, (5R)-3-[(3′,5′-dichlorobiphenyl-4-yl)methyl]-5-methyl-1,3-oxazolidin-2-one]: the EC50 was 113 nM.
As for `C[C@@H]1CN(Cc2ccc(-c3ccc(C(F)(F)F)cc3)cc2)C(=O)O1` [Example 64, (5R)-5-methyl-3-{[4′-(trifluoromethyl)biphenyl-4-yl]methyl}-1,3-oxazolidin-2-one], the EC50 was 61 nM.
On to `C[C@@H]1CN(Cc2ccc(-c3ccc(C(F)(F)F)cc3)nc2)C(=O)O1` [Example 265], for which the EC50 came to 1100 nM.
In the case of `COc1ccc(F)c(F)c1-c1ccc(CN2C[C@@H](C)OC2=O)cn1` [Example 263] it was 1370 nM.
With `Cc1cc(CN2C[C@@H](C)OC2=O)ccc1Oc1ncc(Cl)cc1Cl` [Example 296, (5R)-3-{4-[(3,5-Dichloropyridin-2-yl)oxy]-3-methylbenzyl}-5-methyl-1,3-oxazolidin-2-one], the EC50 was 45.5 nM.
With `CC[C@](COc1ccc(CN2CC(C)OC2=O)cc1)(c1ccccc1)N(C)C` (stereo partly shown) [Example 145], the EC50 amounted to 1340 nM.
Take `CCC(C)CCOc1ccc(CN2C[C@@H](C)OC2=O)cc1` (stereo partly shown) [Example 212]: the EC50 was 77.8 nM.
In the case of `C[C@@H]1CN(Cc2ccc(-c3cc(F)cc(F)c3)cc2)C(=O)O1` [Example 246] it was 445 nM; in that of `Cc1ccccc1-c1ccc(CN2C[C@@H](C)OC2=O)cc1` [Example 180], 52 nM.

The values above are taken from patent US20090137577A1, “HETEROCYCLIC COMPOUNDS” (Pfizer Inc., priority 2007, published 2009).
